Experimental data published in patent US11053235B2, “Substituted 1,4-dihydropyrimidines for the treatment of HBV infection or HBV-induced diseases” (Janssen Sciences Ireland Unlimited Company, priority 2018, dated 2021).

Assays:
HBV = test: Anti-viral assay in HepG2.2.15 cells: HBV inhibitory activity (HBV DNA in culture medium by q-PCR); format: cell-based; conditions: Hepatitis B virus, HepG2.2.15, 144 h, HepG2.2.15 cells, 6 days treatment, HBV DNA in culture medium by q-PCR, highest concentration 10 uM; read-out: EC50
Summary of the method: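 HBV DNA released into the medium was measured by q-PCR after 6-day compound exposure of HepG2.2.15 cells (40,000/well, 2% FBS, one mid-course medium change). Eight 3-fold dilutions, highest 10 uM; EC50 derived by curve fitting.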

[1] = Cytotoxicity determination in HepG2.2.15 cells (CCK-8); format: cell-based; conditions: human, 6 days treatment, CCK-8, highest concentration 100 uM
Summary of the method: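 CC50 derived from CCK-8 absorbance (450 nm, 630 nm reference) after 2.5 h incubation at 37 °C. Before that, HepG2.2.15 cells (5,000/well, 2% FBS) received an 8-point, 3-fold compound series topping at 100 uM for 6 days, with one mid-treatment medium change.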

| SMILES | EC50 (HBV) [µM] | CC50 at 6 days [1] [µM] |
| --- | --- | --- |
| CCOC(=O)C1=C(C2CCN(c3ccc(C(=O)O)cc3)CC2)NC(c2nccs2)=NC1c1ccc(F)c(F)c1Cl (single isomer, unassigned) [II-35-A, 4-(4-(6-(2-Chloro-3,4-difluorophenyl)-5-(ethoxycarbonyl)-2-(thiazol-2-yl)-3,6-dihydropyrimidin-4-yl)piperidin-1-yl)benzoic Acid] | 0.02 | 3.96 |
| CCOC(=O)C1=C(C2CCN(c3cc(O)c(C(=O)O)cn3)CC2)NC(c2nccs2)=NC1c1ccc(F)c(F)c1Cl (single isomer, unassigned) [II-36-B, 6-(4-(6-(2-chloro-3,4-difluorophenyl)-5-(ethoxycarbonyl)-2-(thiazol-2-yl)-3,6-dihydropyrimidin-4-yl)piperidin-1-yl)-4-hydroxynicotinic Acid] | 0.052 | 8.65 |
| CCOC(=O)C1=C(C2CCN(c3cccc(C(=O)O)n3)CC2)NC(c2nccs2)=NC1c1ccc(F)c(F)c1Cl (single isomer, unassigned) [II-37-B, 6-(4-(6-(2-Chloro-3,4-difluorophenyl)-5-(ethoxycarbonyl)-2-(thiazol-2-yl)-3,6-dihydropyrimidin-4-yl)piperidin-1-yl)picolinic Acid] | 0.061 | 6.41 |
| CCOC(=O)C1=C(C2CCN(c3cc(C(=O)O)cc(C(F)(F)F)n3)CC2)NC(c2nccs2)=NC1c1ccc(F)c(F)c1Cl (single isomer, unassigned) [II-38-B, 2-(4-(6-(2-chloro-3,4-difluorophenyl)-5-(ethoxycarbonyl)-2-(thiazol-2-yl)-3,6-dihydropyrimidin-4-yl)piperidin-1-yl)-6-(trifluoromethyl)isonicotinic Acid] | 0.081 | 3.88 |
| CCOC(=O)C1=C(C2CCN(c3cc(C(=O)O)c(C(F)(F)F)cn3)CC2)NC(c2nccs2)=NC1c1ccc(F)c(F)c1Cl (single isomer, unassigned) [II-39-B, 2-(4-(6-(2-Chloro-3,4-difluorophenyl)-5-(ethoxycarbonyl)-2-(thiazol-2-yl)-3,6-dihydropyrimidin-4-yl)piperidin-1-yl)-5-(trifluoromethyl)isonicotinic Acid] | 0.014 | 5.38 |
| CCOC(=O)C1=C(C2CCN(c3nccc(C(=O)O)c3F)CC2)NC(c2nccs2)=NC1c1ccc(F)c(F)c1Cl (single isomer, unassigned) [II-40-B, 2-(4-(6-(2-Chloro-3,4-difluorophenyl)-5-(ethoxycarbonyl)-2-(thiazol-2-yl)-3,6-dihydropyrimidin-4-yl)piperidin-1-yl)-3-fluoroisonicotinic Acid] | 0.0091 | 8.37 |
| CCOC(=O)C1=C(C2CCN(c3cc(C(=O)O)ccn3)CC2)NC(c2nccs2)=NC1c1ccc(F)c(F)c1Cl (single isomer, unassigned) [II-41-B, 2-(4-(6-(2-Chloro-3,4-difluorophenyl)-5-(ethoxycarbonyl)-2-(thiazol-2-yl)-3,6-dihydropyrimidin-4-yl)piperidin-1-yl)isonicotinic Acid] | 0.0052 | 10.2 |
| CCOC(=O)C1=C(C2CCN(c3ccc(C(=O)O)nc3Cl)CC2)NC(c2nccs2)=NC1c1ccc(F)c(F)c1Cl (single isomer, unassigned) [II-42-B, 6-Chloro-5-(4-(6-(2-chloro-3,4-difluorophenyl)-5-(ethoxycarbonyl)-2-(thiazol-2-yl)-3,6-dihydropyrimidin-4-yl)piperidin-1-yl)picolinic Acid] | 0.056 | 2.57 |
| CCOC(=O)C1=C(C2CCN(c3ccc(C(=O)O)cn3)CC2)NC(c2nccs2)=NC1c1ccc(F)c(F)c1Cl (single isomer, unassigned) [II-43-B, 6-(4-(6-(2-Chloro-3,4-difluorophenyl)-5-(ethoxycarbonyl)-2-(thiazol-2-yl)-3,6-dihydropyrimidin-4-yl)piperidin-1-yl)nicotinic Acid] | 0.016 | 11.4 |
| CCOC(=O)C1=C(C2CCN(c3cc(C(F)(F)F)c(C(=O)O)cn3)CC2)NC(c2nccs2)=NC1c1ccc(F)c(F)c1Cl (single isomer, unassigned) [II-44-B, 6-(4-(6-(2-Chloro-3,4-difluorophenyl)-5-(ethoxycarbonyl)-2-(thiazol-2-yl)-3,6-dihydropyrimidin-4-yl)piperidin-1-yl)-4-(trifluoromethyl)nicotinic Acid] | 0.0076 | 4.77 |
| CCOC(=O)C1=C(C2CCN(c3ncc(C(=O)O)cc3F)CC2)NC(c2nccs2)=NC1c1ccc(F)c(F)c1Cl (single isomer, unassigned) [II-45-B, 6-(4-(6-(2-Chloro-3,4-difluorophenyl)-5-(ethoxycarbonyl)-2-(thiazol-2-yl)-3,6-dihydropyrimidin-4-yl)piperidin-1-yl)-5-fluoronicotinic Acid] | 0.0087 | 4.43 |
| CCOC(=O)C1=C(C2CCN(c3cc(C)c(C(=O)O)nn3)CC2)NC(c2nccs2)=NC1c1ccc(F)c(F)c1Cl (single isomer, unassigned) [II-46-B, 6-(4-(6-(2-Chloro-3,4-difluorophenyl)-5-(ethoxycarbonyl)-2-(thiazol-2-yl)-3,6-dihydropyrimidin-4-yl)piperidin-1-yl)-4-methylpyridazine-3-carboxylic Acid] | 0.1 | 3.67 |
| CCOC(=O)C1=C(C2CCN(c3cnc(OC)c(C(=O)O)n3)CC2)NC(c2nccs2)=NC1c1ccc(F)c(F)c1Cl (single isomer, unassigned) [II-47-B, 6-(4-(6-(2-chloro-3,4-difluorophenyl)-5-(ethoxycarbonyl)-2-(thiazol-2-yl)-3,6-dihydropyrimidin-4-yl)piperidin-1-yl)-3-methoxypyrazine-2-carboxylic Acid] | 0.025 | 11.1 |
| CCOC(=O)C1=C(C2CCN(c3cnc(C)c(C(=O)O)n3)CC2)NC(c2nccs2)=NC1c1ccc(F)c(F)c1Cl (single isomer, unassigned) [II-48-B, 6-(4-(6-(2-chloro-3,4-difluorophenyl)-5-(ethoxycarbonyl)-2-(thiazol-2-yl)-3,6-dihydropyrimidin-4-yl)piperidin-1-yl)-3-methylpyrazine-2-carboxylic Acid] | 0.079 | 12.9 |
| CCOC(=O)C1=C(C2CCN(c3cnc(C(=O)O)c(C)n3)CC2)NC(c2nccs2)=NC1c1ccc(F)c(F)c1Cl (single isomer, unassigned) [II-49-B, 5-(4-(6-(2-Chloro-3,4-difluorophenyl)-5-(ethoxycarbonyl)-2-(thiazol-2-yl)-3,6-dihydropyrimidin-4-yl)piperidin-1-yl)-3-methylpyrazine-2-carboxylic Acid] | 0.05 | 0.11 |
| CCOC(=O)C1=C(C2CCN(c3ncc(C(=O)O)o3)CC2)NC(c2nccs2)=NC1c1ccc(F)c(F)c1Cl (single isomer, unassigned) [II-50-B, 2-(4-(6-(2-Chloro-3,4-difluorophenyl)-5-(ethoxycarbonyl)-2-(thiazol-2-yl)-3,6-dihydropyrimidin-4-yl)piperidin-1-yl)oxazole-5-carboxylic Acid] | 0.026 | 19 |
